Key:
[1] = DRUGMATRIX: beta-Lactamase enzyme inhibition (substrate: Nitrocefin); parameters: species or system Bacillus cereus; conditions: Not Active = under 50% inhibition at 10 µM
[2] = DRUGMATRIX: GABAA, Flunitrazepam, Central radioligand binding (ligand: [3H] Flunitrazepam); format: cell membranes, Rattus norvegicus, Wistar, Brain, Membrane; conditions: Not Active = under 50% inhibition at 10 µM
[3] = target: Histamine H2 receptor (Homo sapiens, UniProt P25021); format: cell membranes, CHO-K1, Membrane; conditions: cho-k1; also: in other assays of this panel Not Active means under 50% inhibition at 10 µM
[4] = target: T1, Neuropeptide Y receptor type 1 (Homo sapiens, UniProt P25929); format: cell membranes, Membrane; conditions: sk-n-mc; also: in other assays of this panel Not Active means under 50% inhibition at 10 µM
T1 sequence (P25929 whole entry): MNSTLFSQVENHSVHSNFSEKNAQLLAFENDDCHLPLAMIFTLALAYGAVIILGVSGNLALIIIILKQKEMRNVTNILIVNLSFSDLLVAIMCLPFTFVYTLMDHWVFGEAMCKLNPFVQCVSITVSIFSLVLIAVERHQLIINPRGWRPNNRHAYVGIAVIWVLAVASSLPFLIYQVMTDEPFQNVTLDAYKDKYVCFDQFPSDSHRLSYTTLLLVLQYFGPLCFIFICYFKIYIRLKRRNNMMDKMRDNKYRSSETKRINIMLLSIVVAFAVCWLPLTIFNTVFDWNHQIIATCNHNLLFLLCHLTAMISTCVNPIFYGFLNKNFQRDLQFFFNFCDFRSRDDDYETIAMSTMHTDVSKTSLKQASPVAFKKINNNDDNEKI

[5] = target: cGMP-specific 3',5'-cyclic phosphodiesterase (Homo sapiens, UniProt O76074); assay: DRUGMATRIX: Phosphodiesterase PDE5 enzyme inhibition (substrate: [3H]cGMP + cGMP); format: tissue-based, Platelet; conditions: Not Active = under 50% inhibition at 10 µM
[6] = target: T2, Cytochrome P450 2A6 (Homo sapiens, UniProt P11509); conditions: bti-tn-5b1-4; also: in other assays of this panel Not Active means under 50% inhibition at 10 µM
T2 sequence (P11509 whole entry): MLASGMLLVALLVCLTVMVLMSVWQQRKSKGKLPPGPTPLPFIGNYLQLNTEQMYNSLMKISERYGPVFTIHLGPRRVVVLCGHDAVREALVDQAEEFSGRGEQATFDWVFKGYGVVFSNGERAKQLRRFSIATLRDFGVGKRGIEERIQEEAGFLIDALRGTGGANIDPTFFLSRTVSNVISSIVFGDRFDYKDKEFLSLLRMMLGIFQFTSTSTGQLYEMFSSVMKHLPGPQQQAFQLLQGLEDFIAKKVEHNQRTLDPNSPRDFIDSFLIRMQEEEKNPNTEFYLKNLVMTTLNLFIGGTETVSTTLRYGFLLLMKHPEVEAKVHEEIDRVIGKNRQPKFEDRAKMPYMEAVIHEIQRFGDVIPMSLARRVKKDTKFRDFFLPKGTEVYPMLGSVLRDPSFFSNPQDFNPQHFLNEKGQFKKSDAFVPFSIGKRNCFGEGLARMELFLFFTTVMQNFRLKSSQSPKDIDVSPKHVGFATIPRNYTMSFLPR

[7] = target: Cytochrome P450 2C9 (Homo sapiens, UniProt P11712); conditions: bti-tn-5b1-4; also: in other assays of this panel Not Active means under 50% inhibition at 10 µM
Cytochrome P450 2C9, sequence (P11712 whole entry): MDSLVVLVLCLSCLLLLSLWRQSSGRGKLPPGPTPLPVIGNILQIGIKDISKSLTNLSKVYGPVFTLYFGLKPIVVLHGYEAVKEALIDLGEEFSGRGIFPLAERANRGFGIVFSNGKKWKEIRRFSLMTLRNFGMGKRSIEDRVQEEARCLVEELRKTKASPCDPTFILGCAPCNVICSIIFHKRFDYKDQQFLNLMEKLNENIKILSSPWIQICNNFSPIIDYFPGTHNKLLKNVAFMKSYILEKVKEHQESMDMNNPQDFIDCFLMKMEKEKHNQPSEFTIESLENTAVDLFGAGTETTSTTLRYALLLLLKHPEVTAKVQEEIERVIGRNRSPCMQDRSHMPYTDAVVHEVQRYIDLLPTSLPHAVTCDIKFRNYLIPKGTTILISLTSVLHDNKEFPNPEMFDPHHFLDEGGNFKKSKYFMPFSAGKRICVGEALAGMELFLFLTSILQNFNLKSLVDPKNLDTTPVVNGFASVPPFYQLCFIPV

Histamine H2 receptor, sequence (P25021 whole entry): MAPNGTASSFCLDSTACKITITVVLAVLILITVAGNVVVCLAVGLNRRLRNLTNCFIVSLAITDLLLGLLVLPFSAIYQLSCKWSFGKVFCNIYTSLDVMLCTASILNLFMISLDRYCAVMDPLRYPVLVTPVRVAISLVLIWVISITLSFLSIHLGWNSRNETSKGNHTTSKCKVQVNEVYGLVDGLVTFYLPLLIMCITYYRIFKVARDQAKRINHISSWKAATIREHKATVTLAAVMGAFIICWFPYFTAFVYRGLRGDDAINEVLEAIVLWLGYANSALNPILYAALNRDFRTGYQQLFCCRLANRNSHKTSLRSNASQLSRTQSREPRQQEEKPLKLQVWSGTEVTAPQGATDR

Compound | IC50 [1] | Ki [1] | IC50 [2] | Ki [2] | IC50 [3] | IC50 [4] | IC50 ([5]; platelet) | IC50 [6] | Ki [6] | IC50 [7] | Ki [7] | IC50 ([2]; read-out: IC50) [µM] | Ki ([2]; read-out: Ki) [µM] | IC50 ([5]; read-out: IC50) [µM]
C[C@@H](CO)NC(=O)[C@@H]1C=C2c3cccc4[nH]cc(c34)C[C@H]2N(C)C1 [ERGONOVINE] | Not Active | Not Active | Not Active | Not Active | Not Active | Not Active | Not Active | Not Active | Not Active | Not Active | Not Active |  |  | 
COC(=O)CCc1ccc(OCC(O)CNC(C)C)cc1 (stereo not given) [ESMOLOL] | Not Active | Not Active | Not Active | Not Active | Not Active | Not Active | Not Active | Not Active | Not Active | Not Active | Not Active |  |  | 
CCC1(C)CC(=O)NC1=O (stereo not given) [ETHOSUXIMIDE] | Not Active | Not Active | Not Active | Not Active | Not Active | Not Active | Not Active | Not Active | Not Active | Not Active | Not Active |  |  | 
C#C[C@]1(OC(C)=O)CC[C@H]2[C@@H]3CCC4=C[C@@H](OC(C)=O)CC[C@@H]4[C@H]3CC[C@@]21C [ETHYNODIOL DIACETATE] | Not Active | Not Active | Not Active | Not Active | Not Active | Not Active | Not Active | Not Active | Not Active | Not Active | Not Active |  |  | 
C=CCc1ccc(O)c(OC)c1 [EUGENOL] | Not Active | Not Active | Not Active | Not Active | Not Active | Not Active | Not Active | Not Active | Not Active | Not Active | Not Active |  |  | 
CC(C(=O)O)c1cccc(Oc2ccccc2)c1 (stereo not given) [FENOPROFEN] | Not Active | Not Active | Not Active | Not Active | Not Active | Not Active | Not Active | Not Active | Not Active | Not Active | Not Active |  |  | 
Nc1ccn([C@@H]2O[C@H](CO)[C@@H](O)C2(F)F)c(=O)n1 [GEMCITABINE] | Not Active | Not Active | Not Active | Not Active | Not Active | Not Active | Not Active | Not Active | Not Active | Not Active | Not Active |  |  | 
N=C(N)NC(=O)Cc1c(Cl)cccc1Cl [GUANFACINE] | Not Active | Not Active | Not Active | Not Active | Not Active | Not Active | Not Active | Not Active | Not Active | Not Active | Not Active |  |  | 
Oc1c(Cl)cc(Cl)c(Cl)c1Cc1c(O)c(Cl)cc(Cl)c1Cl [HEXACHLOROPHENE] | Not Active | Not Active | Not Active | Not Active | Not Active | Not Active | Not Active | Not Active | Not Active | Not Active | Not Active |  |  | 
NNc1nncc2ccccc12 [HYDRALAZINE] | Not Active | Not Active | Not Active | Not Active | Not Active | Not Active | Not Active | Not Active | Not Active | Not Active | Not Active |  |  | 
CC(C)NNC(=O)c1ccncc1 [IPRONIAZID] | Not Active | Not Active | Not Active | Not Active | Not Active | Not Active | Not Active | Not Active | Not Active | Not Active | Not Active |  |  | 
Cc1c(OCC(F)(F)F)ccnc1C[S+]([O-])c1nc2ccccc2[nH]1 (stereo not given) [LANSOPRAZOLE] | Not Active | Not Active | Not Active | Not Active | Not Active | Not Active | Not Active | Not Active | Not Active | Not Active | Not Active |  |  | 
O=c1cc(N2CCOCC2)oc2c(-c3ccccc3)cccc12 [LY-294002] | Not Active | Not Active |  |  | Not Active | Not Active |  | Not Active | Not Active | Not Active | Not Active | 21.4 | 17.4 | 9.61
COc1ccc2[nH]cc(CCNC(C)=O)c2c1 [MELATONIN] | Not Active | Not Active | Not Active | Not Active | Not Active | Not Active | Not Active | Not Active | Not Active | Not Active | Not Active |  |  | 
NC(=O)C[S+]([O-])C(c1ccccc1)c1ccccc1 (stereo not given) [MODAFINIL] | Not Active | Not Active | Not Active | Not Active | Not Active | Not Active | Not Active | Not Active | Not Active | Not Active | Not Active |  |  | 
CCN(CC)CCOCCC1=CCC2CC1C2(C)C (stereo not given) [MYRTECAINE] | Not Active | Not Active | Not Active | Not Active | Not Active | Not Active | Not Active | Not Active | Not Active | Not Active | Not Active |  |  | 
O=C(O)c1cccnc1Nc1cccc(C(F)(F)F)c1 [NIFLUMIC ACID] | Not Active | Not Active | Not Active | Not Active | Not Active | Not Active | Not Active | Not Active | Not Active | Not Active | Not Active |  |  | 
COC(=O)Nc1nc2ccc(C(=O)c3cccs3)cc2[nH]1 [NOCODAZOLE] | Not Active | Not Active | Not Active | Not Active | Not Active | Not Active | Not Active | Not Active | Not Active | Not Active | Not Active |  |  | 
C#CC1(O)CC[C@H]2[C@@H]3CCC4=CC(=O)CC[C@@H]4[C@H]3CC[C@@]21CC (stereo not given in full) [NORGESTREL] | Not Active | Not Active |  |  | Not Active | Not Active | Not Active | Not Active | Not Active | Not Active | Not Active | 2.36 | 1.92 | 
COC(=O)Nc1nc2ccc([S+]([O-])c3ccccc3)cc2[nH]1 (stereo not given) [OXFENDAZOLE] | Not Active | Not Active | Not Active | Not Active | Not Active | Not Active | Not Active | Not Active | Not Active | Not Active | Not Active |  |  | 

From ChEMBL document CHEMBL1909046, “DrugMatrix in vitro pharmacology data”
